Experimental data from PMC5591855, “d-Tubocurarine and Berbamine: Alkaloids That Are Permeant Blockers of the Hair Cell's Mechano-Electrical Transducer Channel and Protect from Aminoglycoside Toxicity” (Frontiers in Cellular Neuroscience, 2017).

Test system: T1, mechano-electrical transducer (MET) channel
T1 construct: native channel in CD-1 mouse cochlear outer hair cells (organotypic cultures)
Test: whole-cell patch clamp of MET currents, extracellular block at -104 mV, […] Ca2+
Type: cell-based, Mus musculus
Settings: read-out: Kd

## COc1cc2c3cc1Oc1cc(ccc1O)C[C@@H]1c4c(cc(OC)c(O)c4Oc4ccc(cc4)C[C@@H]3N(C)CC2)CC[N+]1(C)C [dTC, d-Tubocurarine]
  IC50: 2200 nM

## berbamine
  IC50: 2800 nM
